{
  "source": "patent US12636446B2",
  "about": "“Devices for evaporation and inhalation of nicotine” (Emplicure AB, priority 2016, dated 2026)",
  "key": {"[1]": {"settings": "calcium sulphate coins, solution 50 μl, 5 mg/ml dispensed; oven approximately 250° C., 0 to 15 minutes", "protocol": "(§1) Calcium sulphate alpha hemihydrate (CaS) was obtained from Bo Ehrlander AB (Sweden). Clonidine hydrochloride was obtained from PCAS (Finland). Shaped silicon rubbers were used as molds for coins (diameter: 12 mm, thickness: 2 mm). The calcium sulphate was mixed with deionised water (Liquid/Powder ratio of 0.4 (w/w)) to form a homogenous paste, which was used to fill the rubber molds. When the paste was applied, the molds were set to dry for at least 12 h under ambient conditions.\nClonidine hydrochloride solution (50 μl, 5 mg/ml) was dispensed onto the calcium sulphate coins. When the solution was applied, the coins were set to dry for at least 12 h under ambient conditions.\n(§2) The temperature was set to approximately 250° C.\n(§3) Each coin was weighed and immersed into a beaker containing 200 ml of deionised water. […] The sample was characterized by Shimadzu LC-2030 (Germany) HPLC system with a Genesis C18 analytical column 4 μm (100×2.1 mm i.d.) with a mobile phase of acetonitrile/phosphoric acid, pH 3 (11/89). The wavelength was set to 220 nm.\nThe reference samples represent the amount of clonidine hydrochloride that was loaded before heat treatment."}, "[2]": {"description": "as §1, with “with powder of Clonidine hydrochloride (0.07 g Clonidine hydrochloride/g calcium sulphate) and” for “with”, “molds. Once” for “molds. When”, “paste had been” for “paste was”\nThe oven temperature was set to approximately 250° C.\nas §3\nThe reference samples represent the amount of clonidine hydrochloride mg/g calcium sulphate that was loaded before heat treatment."}, "[3]": {"assay": "Oven heating of Al2O3 rods soaked in sumatriptan succinate solution; detection by UV", "settings": "Al2O3 rods soaked in 20 mg/ml solution for 24 hours"}, "[4]": {"assay": "Oven heating of calcium sulphate coins pre-loaded with sumatriptan succinate; detection by UV", "assay_type": "physicochemical", "settings": "0.07 g sumatriptan succinate/g calcium sulphate, oven approximately 250° C.", "protocol": "as §2"}, "[5]": {"settings": "Liquid/Powder ratio 0.4 (w/w)", "protocol": "as §1, with “(Sweden).” for “(Sweden). Clonidine hydrochloride was obtained from PCAS (Finland).”, “a nicotine solution with a concentration of 5 or 20 mg/ml of nicotine” for “deionised water”, “filled in” for “used to fill”, “Once” for “When”\nThe temperature was set to approximately 200° C.\nThe sample was characterized by UV-spectrophotometer at a wavelength of 219 nm. The amount nicotine in the samples were then calculated."}, "[6]": {"settings": "calcium sulphate coins, nicotine solution 50 μl, 18 mg/ml dispensed; heated about 1 minute or about 5 minutes", "description": "Calcium sulphate coins were obtained as described in Example 3. For the indirect induction test a magnet was molded into the coin. Nicotine and nicotine solutions were supplied and applied, and nicotine levels were detected as described in Example 3.\nMetal plate for induction cooker was obtained from Haneström (Sweden). Induction cooker Wilfa ICP-2000 was obtained from Media Markt (Sweden). Magnets (10*1 mm, Samarium Cobalt magnets, 0.4 kg pull) were obtained from first4magnets (UK). IR-thermometer (MS6520A) was obtained from Mastech (USA).\nHeat treatment by indirect induction was carried out by placing a metal plate onto the induction cooker. The ceramic coins containing a magnet was applied onto the metal plate and heated on maximum effect (exact temperature was not measured; see FIG. 10)."}, "[7]": {"settings": "for amount of nicotine detected in the reference sample / nicotine detected in coins after heating: pure nicotine (20 mg) dispensed; for amount of nicotine detected in the reference sample: not heated"}, "[8]": {"settings": "calcium sulphate rods soaked 24 hours in pure nicotine; heated 5*10 sec., maximum temperature 315° C.", "description": "Aluminium oxide ceramic rods and calcium sulphate rods were obtained as described in Example 3. Nicotine and nicotine solutions were supplied and applied, and nicotine levels were detected as described in Example 3.\nSamples were heated using a prototype e-cigarette device (X-Cube II, Smoke) obtained from Devex Mekatronik AB (Sweden). The device is derived from the commercially available e-cigarette X-Cube.\nThe sample in the device was heated up by a coil that is wrapped around the sample.\nThe end of the device was connected to a vial via a silicon hose. The vial contained 1 ml of deionised water. To simulate smoking a rod was put into the device and puffing was performed. Puffing involves a sequence of 5 puffs that are each 10 seconds long. After puffing, the hose was removed and flushed with the water. The water was analysed for concentration of nicotine."}, "[9]": {"settings": "calcium sulphate rods soaked in pure nicotine, oven approximately 200° C."}},
  "note": "Where a name gives a salt, the structure may show the parent alone. Read-outs that look alike come from different tables or passages of the source.",
  "data": [
    {"smiles": "Clc1cccc(Cl)c1N=C1NCCN1", "note": "[clonidine hydrochloride]", "values": [
      {"measurement": "amount of clonidine hydrochloride present in the coins during heating", "setting": "[1]", "value": "decreased significantly"},
      {"measurement": "amount of clonidine hydrochloride contained in coin", "setting": "[2]; calcium sulphate coins pre-loaded, 0.07 g clonidine hydrochloride/g calcium sulphate, coin approximately 0.3 g", "value": "approximately 17 mg"},
      {"measurement": "time within which almost all of the clonidine hydrochloride was released when heated", "setting": "[2]; pre-loaded calcium sulphate coins, oven approximately 250° C.", "value": "≤ 15", "unit": "min"}
    ]},
    {"smiles": "CNS(=O)(=O)Cc1ccc2[nH]cc(CCN(C)C)c2c1", "note": "[sumatriptan succinate]", "values": [
      {"measurement": "amount of sumatriptan succinate absorbed by rod", "setting": "[3]", "value": "approximately 1 mg sumatriptan succinate/rod"},
      {"measurement": "time within which almost all of the Sumatriptan succinate was released when heated", "setting": "[4]", "value": "≤ 15", "unit": "min"}
    ]},
    {"smiles": "CN1CCCC1c1cccnc1", "note": "(stereo not drawn) [nicotine]", "values": [
      {"measurement": "amount of nicotine contained in coin", "setting": "[5]; calcium sulphate coins mixed with 5 mg/ml nicotine solution", "value": "approximately 180 μg"},
      {"measurement": "amount of nicotine contained in coin", "setting": "[5]; calcium sulphate coins mixed with 20 mg/ml nicotine solution", "value": "~390", "unit": "µg"},
      {"measurement": "nicotine release on induction heating, unheated plate", "setting": "[6]", "value": "Most of the nicotine was released within the first minute"},
      {"measurement": "time within which almost all of the nicotine was released when heated", "setting": "[7]; aluminium oxide rods soaked in 6 mg/ml nicotine solution (diluted e-juice) 24 hours, oven approximately 200° C.", "value": "5 to 10", "unit": "min"},
      {"measurement": "amount of nicotine absorbed by rod", "setting": "[7]; aluminium oxide rods soaked in 6 mg/ml nicotine solution for 24 hours", "value": "approximately 135 μg nicotine/rod"},
      {"measurement": "amount of nicotine detected in the reference sample", "setting": "[7]; calcium sulphate coins", "value": "lower than 20 mg"},
      {"measurement": "nicotine detected in coins after heating", "setting": "[7]; calcium sulphate coins, oven approximately 200° C.", "value": "lower release of nicotine was detected after heating"},
      {"measurement": "amount of nicotine absorbed by rod", "setting": "[7]; calcium sulphate rods soaked in pure nicotine for 24 hours", "value": "approximately 20 mg nicotine/rod"},
      {"measurement": "nicotine release during heating", "setting": "[7]; [9]", "value": "Most of the nicotine was released"},
      {"measurement": "nicotine release, 5 min of heating compared to 1 min of heating", "setting": "[7]; [9]", "value": "a higher amount was released during 5 min of heating compared to 1 min of heating"},
      {"measurement": "amount of nicotine detected in the reference sample", "setting": "[7]; geopolymer coins", "value": "about 16 mg"},
      {"measurement": "nicotine detected in coins after heating", "setting": "[7]; geopolymer coins, oven approximately 200° C.", "value": "lower release of nicotine was detected after heating"},
      {"measurement": "nicotine release on heat treatment in e-cigarette device", "setting": "[8]", "value": "a heat treatment in the device will result in a nicotine release"}
    ]}
  ]
}
